Measurements: patent publication US10674724B2, “Method of activating immune response in plants” (priority 2012, dated 2020)

What was measured:
[1] = biological target: T1, BTB/POZ-Δ513 interaction (Arabidopsis thaliana, UniProt P93002); assay: BTB/POZ-Δ513 pull-down assay; type: biochemical; design: made in house; host or cells: E. coli; settings: 1 mM SA
T1 sequence (P93002 513-593): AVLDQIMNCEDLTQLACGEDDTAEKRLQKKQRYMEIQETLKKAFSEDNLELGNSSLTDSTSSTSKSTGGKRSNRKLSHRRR
Experimental: The BTB/POZ (amino acids 1-190 of NPR1) was expressed in E. coli as a C-terminal fusion to the Strep-Tag according to standard protocols. The Δ513 of NPR1 was expressed as an N-terminal fusion to the HA-Tag as described above. The VLRSgt (as described in Hall et al. (2007) Plant J 49, 579-591) was expressed in E. coli as an N-terminal fusion to the GST-Tag according to standard protocols. The pull-down assay was performed in the Strep-Tactin buffer. The antibodies used for detecting the tags in the BTB/POZ-Strep was from Qiagen (catalog #34850) and those used for the tags in HA-Δ513 or the GST-VLRSgt were from Santa Cruz Biotechnology (catalog #: sc-7392 and sc-138).
Given that the plant two-hybrid system is an in vivo method of analysis, an indirect effect of SA on the interaction of the BTB/POZ and the C-terminus of NPR1 cannot be ruled out. Thus, the interaction in vitro in a pull-down assay (FIG. 8) was tested. […] As negative controls, first an unrelated protein (VLRSgt) was shown not to interact with BTB/POZ (FIG. 5D) and secondly Δ513 was shown not to interact with the solid support in the absence of BTB/POZ (FIG. 5E).

[2] = biological target: T2, NPR1 C521S/C529S (Arabidopsis thaliana, UniProt P93002, C521S/C529S); assay: Sephacryl S300 gel filtration of NPR1 Cys-to-Ser mutant; type: biochemical; settings: 1 mM SA
T2 construct: both full-length NPR1 and Δ513 harboring C-to-S mutations at Cys^521/529; made in house; host or cells: E. coli
Experimental: (§1) Strep-tagged purified proteins in a final volume of 2 ml were subjected to gel filtration analysis on the Sephacryl S100 HR or Sephacryl S300 HR packed in 50 cm long HR 16 columns (GE Health) and equilibrated with S300 chromatography buffer (50 mM HEPES, pH 7.4, 250 mM NaCl. Elutions, in 0.5 ml fractions, were performed in the same buffer at a flow rate of 0.8 ml/min. Where indicated, proteins were incubated with 1 mM SA, 1 mM catechol, 1 mM 4-hydroxy benzoic acid, or 1 mM methyl-salicylate at room temperature for 30 min prior to chromatography as described above with the exception that the chromatography buffer was supplemented with 1 mM SA, 1 mM catechol, 1 mM 4-hydroxy benzoic acid, or 1 mM methyl-salicylate, respectively. In the case of the EDTA treatment, NPR1 was stripped of its metal by a 50 mM EDTA treatment of 30 min, followed by an incubation of 30 min with 1 mM SA prior to gel filtration. In this case, the chromatography buffer was supplemented with 1 mM SA.

[3] = biological target: T3, NPR1 (Arabidopsis thaliana, UniProt P93002); assay: Sephacryl S300 gel filtration of Strep-tagged NPR1; type: biochemical
T3 construct: made in house; host or cells: E. coli
Experimental: as §1

[4] = biological target: T3, NPR1; assay: classical non-equilibrium solid-phase [14C]SA binding; settings: radiolabeled SA, washes to remove unbound ligand
Experimental: To test whether NPR1 can bind SA directly, a classic method to assess Kd values was used, which involved coupling NPR1 to a solid phase and incubating it with radiolabeled SA, followed by washes to remove unbound ligand and counting the amount of ligand bound to NPR1.

[5] = biological target: T3, NPR1; type: binding; settings: equilibrium dialysis
Experimental: Given the dissociation reaction:
The data was analyzed by non-linear regression using GraphPad PRISM 4 and fitted to a one-site-binding rectangular hyperbola.

T3 sequence (P93002 whole entry): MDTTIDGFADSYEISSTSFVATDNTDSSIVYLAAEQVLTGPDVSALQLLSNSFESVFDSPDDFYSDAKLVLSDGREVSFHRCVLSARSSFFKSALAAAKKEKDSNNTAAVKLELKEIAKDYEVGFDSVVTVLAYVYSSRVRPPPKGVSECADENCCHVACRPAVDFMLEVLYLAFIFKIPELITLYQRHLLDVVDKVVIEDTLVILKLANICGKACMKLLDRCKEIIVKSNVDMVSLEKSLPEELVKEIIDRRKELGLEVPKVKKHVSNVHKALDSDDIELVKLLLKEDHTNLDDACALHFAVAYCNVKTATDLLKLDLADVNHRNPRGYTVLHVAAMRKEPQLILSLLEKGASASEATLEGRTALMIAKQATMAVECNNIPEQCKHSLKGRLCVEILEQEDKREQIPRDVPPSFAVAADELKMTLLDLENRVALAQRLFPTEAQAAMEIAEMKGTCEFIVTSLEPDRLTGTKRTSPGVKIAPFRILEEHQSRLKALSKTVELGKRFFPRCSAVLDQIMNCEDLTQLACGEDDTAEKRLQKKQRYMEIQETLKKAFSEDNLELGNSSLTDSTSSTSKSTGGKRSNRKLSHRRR
T2 sequence (P93002 whole entry C521S/C529S): as the sequence (P93002 whole entry) above, with C521S, C529S counted along it

O=C(O)c1ccccc1O [SA, Salicylic acid]
BTB/POZ-Δ513 interaction in pull-down [1]: disrupted | SA-induced NPR1 conformation change, Cys521/529 mutant [2]: abolished the NPR1 conformation change | conformation of NPR1 (S300 elution profile) ([3]; 1 mM SA, catechol, 4-hydroxy benzoic acid or methyl-salicylate, 30 min, DTT concentration not given): redistributed to the included volume | SA-induced NPR1 conformation change after metal chelation ([3]; 50 mM EDTA 30 min, then 1 mM SA 30 min): abolished the NPR1 conformation change | binding of SA to NPR1 coupled to a solid phase [4]: not above that observed with a solid phase containing no protein | amount of SA bound to NPR1 above a no-protein experiment [5]: ~4 orders of magnitude | maximum binding (Bmax) ([5]; saturation binding): 0.96±0.01 mol SA per mol NPR1
